Our source for the melting point values is a melting point compilation (Tetko et al.).

In the case of `Cc1ccc(/C=C(\C(N)=O)c2nc3ccccc3s2)cc1`, the melting point was found to be 148 °C.

On to `OC(C1=CC(=C(c2ccccn2)c2ccccn2)C=C1)(c1ccccn1)c1ccccn1`, for which the melting point amounted to 146 °C.

Turning to `Cc1nc(-c2ccc3c(c2)CCO3)sc1C(=O)O`, the melting point fell in the range of 221 to 225 °C.

For the compound `CCCCCCCCCCCCC(C)C`, the melting point was -8 °C.

Take `Brc1ccc(Oc2ccc(Br)c(Br)c2)cc1Br`: the melting point lay in the range of 94 to 95 °C.

As for `NC(=O)C(F)(F)C(F)(F)C(F)(F)C(F)(F)C(F)(F)C(F)(F)F`, the melting point is 136 °C.

As for `CCOC(=O)c1nnn2c3ccccc3c(=O)n(C)c12`, the melting point was 149 to 150 °C.

Compound `Brc1cccc(-n2cccc2)c1` registered a melting point of 63 to 64 °C.

In turn, `COc1cc(C(=O)O)cc(OCc2ccccc2)c1OC` had a melting point of 178 °C.

`CC(C)Cc1ccc(C(=O)C(C)Cl)cc1` (configuration not stated) had a melting point of 52 to 54 °C.

Regarding `Cc1c(F)cccc1CC#N`, the melting point is 47 °C.

Compound `CCN1C(=O)CCC1=O` returned a melting point of 26 °C.

In turn, `CC(=O)c1ccc(N2CCCC2)cc1` came in with a melting point of 129 °C.

In turn, `CC(C)Nc1ccc(Cl)cc1[N+](=O)[O-]` yielded a melting point of 72 to 74 °C.

`Cc1ccc(Cl)c(O)c1` registered a melting point of 46 °C.

`CC1CCCC(C)C1O` (configuration not stated) came in with a melting point of 32.5 °C.

`CC(=O)N=C1C=CC(=O)C=C1` came in with a melting point of 74.5 °C.

With `CC(=O)C[C@@]1(O)C(=O)c2ccccc2-c2ccccc21`, the melting point is 66.8 °C.

In turn, `Cc1cnc(Cl)c([N+](=O)[O-])c1` yielded a melting point of 46 to 50 °C.

`O=C1CCCC(=O)N1`: the melting point was 156 °C.

`O=Cc1c[nH]c2ccc(Cl)cc12` came in with a melting point of 211 °C.

On to `Cc1n[nH]c(C)c1Cl`, for which the melting point was found to be 118 °C.

`Cc1cc(C)c(Cl)c(O)c1Cl` registered a melting point of 87.5 °C.

Regarding `CCN(CC)C(=O)C1=C(C)NC(=O)NC1c1ccccc1` (configuration not stated), the melting point was determined as 181 °C.

In turn, `Cc1nnc(SCc2ccccc2)n1N=Cc1ccccc1Cl` yielded a melting point of 121 to 123 °C.

In turn, `O=C(O)Cc1nn(Cc2nc3cc(C(F)(F)F)ccc3s2)c(=O)c2ccccc12` registered a melting point of 197 °C.

Consider `NC(C(=O)O)C1=CCC=CC1` (configuration not stated), for which the melting point was found to be 260 °C.

Turning to `NC(Cc1cc(F)cc(F)c1)C(=O)O` (racemic), the melting point is 243 to 245 °C.

On to `O=[N+]([O-])c1cc(-c2ncco2)cc([N+](=O)[O-])c1`, for which the melting point came out at 130 °C.

For the compound `CC(c1ccccc1)C(C(=O)O)c1ccccc1` (configuration not stated), the melting point was found to be 129 °C.

As for `CC(=O)N1c2ccccc2CC1c1ccccc1` (configuration not stated), the melting point turned out to be 129 °C.

With `FC(F)(F)c1cccc(Cl)n1`, the melting point was 33 to 35 °C.

The compound `Cc1ccc(Br)c([N+](=O)[O-])c1` displayed a melting point of 31 °C.

`CC(C)(C)OC(=O)N1CC(=O)C1` yielded a melting point of 51 °C.

The compound `COC(=O)c1ccc(=O)oc1` had a melting point of 70 °C.

Consider `CN1C2CC(=O)CC1C(O)C2` (configuration not stated), for which the melting point lay within 120 to 123 °C.

Compound `CCOC(=O)c1ccccc1N=C=O` displayed a melting point of 29 °C.

`CC(CC(N)=O)n1nc2ccccc2n1` (configuration not stated) gave a melting point of 152 °C.

As to `CSc1nc2cc(NCc3ccc(Cl)cc3)ccc2[nH]1`, the melting point came to 248 °C.

In turn, `CSc1ncccc1C(=O)Cl` had a melting point of 94 °C.

In turn, `O=C(O)CCSCSCCC(=O)O` showed a melting point of 138 to 140 °C.

Compound `Cc1cc(N)c(N)cc1Cl` returned a melting point of 137 to 140 °C.

Compound `Nc1cccc2c(O)nnc(O)c12` yielded a melting point of 330 °C.

`OC1(c2ccc(Cl)cc2)CCNCC1` yielded a melting point of 139 to 141 °C.

Take `O=C(O)CCc1ccc(Br)cc1`: the melting point stood at 135 °C.

Take `O=Cc1ncccc1F`: the melting point was in the range of 49 to 52 °C.

Regarding `CCOC(=O)C(=O)c1ccc(Br)s1`, the melting point was in the range of 70 to 71 °C.

For orientation: melting point means the temperature, or range, at which the solid turns liquid.
